Reference: PubChem BioAssay (NCI)
Several values for one entry are separate records, joined by “and”; a condition that tells them apart may be missing. Identical values can stand only once.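 Protocol summary: plate cells (96-well), add compound at 5 concentrations, incubate 48 h, interpolate endpoints linearly. GI50 is the concentration that inhibits growth by half. TGI: total growth inhibition.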

Assays:
Assay in all cases: NCI-60 cell line screen, 48 h
[1] = tested on: A498 renal
[2] = tested on: ACHN renal
[3] = tested on: M14 melanoma
[4] = tested on: MCF7 breast
[5] = tested on: OVCAR-5 ovarian
[6] = tested on: PC-3 prostate
[7] = tested on: RXF 393 renal
[8] = tested on: SNB-19 CNS
[9] = tested on: UACC-257 melanoma
[10] = tested on: HCC-2998 colon

Row | SMILES | GI50 [1] [µM] | TGI [1] | GI50 [2] [µM] | TGI [2] [µM] | GI50 [3] [µM] | TGI [3] | GI50 [4] [µM] | TGI [4] [µM] | GI50 [5] | TGI [5] | GI50 [6] [µM] | TGI [6] [µM] | GI50 [7] | TGI [7] | GI50 [8] [µM] | TGI [8] | GI50 [9] [µM] | TGI [9] | GI50 [10] [µM] | TGI [10]
1 | CCCCC#CC1=C(Br)C(=O)OC1 | 18.1 | 33.5 µM | 2.24 | > 21 | 1.26 | 3.71 µM | 1.03 | 8.08 | 2.73 µM | 7.38 µM | 1.28 | 9.43 | 1.89 µM | 4.57 µM | 12.9 | 37.1 µM | 2.2 | 5.67 µM | – | –
2 | CC1=C(C(=O)Nc2ccc(F)c(Cl)c2)C(c2ccccc2O)NC(=S)N1 (centres undefined) | – | – | > 50 | > 50 | > 50 | > 50 µM | – | – | > 50 µM | > 50 µM | 40.6 | > 50 | 2.15 µM | > 50 µM | > 50 | > 50 µM | 19.8 | > 50 µM | – | –
3 | COC(=O)COc1ccccc1/C=C1\N=C(c2ccccc2)N(c2cc(C(F)(F)F)ccc2Cl)C1=O | > 100 | > 100 µM | 57 | > 100 | 37.9 | > 100 µM | 39.1 | > 100 | > 100 µM | > 100 µM | 32.5 | > 100 | 71.6 µM | > 100 µM | 43.5 | > 100 µM | – | – | 36.3 | > 100 µM
4 | CC1(C)CC(=O)C(C=NC(=S)c2ccccc2)=C(O)C1 | – | – | – | > 100 | – | > 100 µM | – | > 100 | – | > 100 µM | – | > 100 | – | – | – | > 100 µM | – | > 100 µM | – | > 100 µM
5 | C(=NCCN1CCOCC1)=NC1CCCCC1 | – | > 100 µM | – | > 100 | – | > 100 µM | – | > 100 | – | > 100 µM | – | > 100 | – | > 100 µM | – | > 100 µM | – | > 100 µM | – | –
6 | Clc1ccc2c(c1)[nH]c1c2nc2ccccn21 | – | > 100 µM and 44.5 µM | 28.1 | 83 | – | 64.5 µM and 36.9 µM | – | – | 38.8 µM and 16.5 µM | > 100 µM and 30.1 µM | – | – | 26.6 µM and 11.7 µM | 68.3 µM and 24.2 µM | – | 58.6 µM and 35.3 µM | – | 89.4 µM and 32.3 µM | – | 63.3 µM and 13.8 µM
7 | Cc1ccc(S(=O)(=O)Nc2ccccc2C=O)cc1 | – | 92.2 µM | – | 46.7 | – | 54.7 µM | – | 35.2 | – | 67 µM | – | 35.6 | – | > 100 µM | – | 75 µM | – | 45.7 µM | – | –
8 | NC(N)=N/N=C/c1c(-c2ccsc2)nc2sccn12 | 17.5 | 31.8 µM | 16.9 | 32 | 18.5 | 32.4 µM | – | – | 16.6 µM | 30.3 µM | 13.2 | 26 | 17.9 µM | 40 µM | 16.7 | 32.6 µM | 22.3 | 41.1 µM | – | –
9 | OC(CC1SCCCS1)c1ccccc1 (centres undefined) | – | > 100 µM | – | > 100 | – | > 100 µM | – | – | – | > 100 µM | – | – | – | > 100 µM | – | > 100 µM | – | > 100 µM | – | > 100 µM
10 | S=C(Nc1ccc(Cl)cc1)Nc1ccc(-c2nc3ccccc3s2)cc1 | – | – | 15.4 | 45.4 | 14.3 | 28 µM | – | – | 20.8 µM | 44 µM | 14.3 | 54.9 | 16.6 µM | 37.1 µM | 19 | 69.6 µM | 20.3 | 44.9 µM | 14.7 | 27.8 µM
11 | CC(C)N(C(=O)C12C3C4C1C1C4(C#N)C3C12C#N)C(C)C (centres undefined) | – | > 100 µM | – | > 100 | – | > 100 µM | – | – | – | > 100 µM | – | – | – | > 100 µM | – | > 100 µM | – | > 100 µM | – | > 100 µM
12 | Cc1cn2c(=O)c3ncn(C4OC(CO)C(O)C4O)c3n(C)c2n1 (centres undefined) | – | > 100 µM | – | > 100 | – | > 100 µM | – | – | – | > 100 µM | – | – | – | > 100 µM | – | > 100 µM | – | > 100 µM | – | > 100 µM
13 | CC(C)(C)NNC(=O)CCn1[nH]c(=O)c(Cl)c(Cl)c1=O | – | > 100 µM | – | > 100 | – | > 100 µM | – | – | – | > 100 µM | – | – | – | > 100 µM | – | > 100 µM | – | > 100 µM | – | > 100 µM
14 | CC[As](CC)SC[C@H](C)C(=O)N1CCC[C@H]1C(=O)O | 0.296 | 0.866 µM | 0.0548 | 0.169 | 0.0257 | 0.0895 µM | 0.0363 | 0.159 | 0.245 µM | 0.735 µM | 0.106 | 0.589 | < 0.0297 µM | 0.475 µM | – | – | 0.282 | 1.48 µM | – | –
15 | NC(=S)N/N=C/C(=O)O | > 100 | > 100 µM | > 100 | > 100 | > 100 | > 100 µM | 5.58 | > 100 | > 100 µM | > 100 µM | 67.7 | > 100 | – | – | > 100 | > 100 µM | 30.1 | > 100 µM | – | –
16 | CC(C)C1=CC23CCC4C(C)(C(=O)O)CCCC4(C)C2CC1C1C(=O)N(c2ccc(Cc4ccc(N5C(=O)C6C7CC8C9(C)CCCC(C)(C(=O)O)C9CCC8(C=C7C(C)C)C6C5=O)cc4)cc2)C(=O)C13 (centres undefined) | – | 22.5 µM | – | 17.8 | – | 22.1 µM | – | 18.9 | – | 35.8 µM | – | 15.7 | – | 27.4 µM | – | 17.9 µM | – | – | – | 21.7 µM
17 | CO/N=C(/C)c1cccc(Nc2cc(-n3nnc4ccccc43)nc3ccccc23)c1 | – | – | 42.3 | > 100 | 37.4 | > 100 µM | 31.3 | > 100 | 41.7 µM | > 100 µM | 8.64 | 61.9 | – | – | 30.2 | > 100 µM | 87.5 | > 100 µM | 25.7 | > 100 µM
18 | COC(=O)C1c2cc3c(cc2C(OC2OC(C)C(OC)C(C)(OC)C2OC)CC1(C)O)C(=O)c1c(O)cc2c(c1C3=O)OC1OC2(C)C(O)C([N+](C)(C)[O-])C1O (centres undefined) | – | 3.7 µM | – | > 100 | – | 3.64 µM | – | > 100 | – | > 43.6 µM | – | > 40.7 | – | 0.977 µM | – | > 36.1 µM | – | – | – | –
19 | CCOC(=O)c1cnc2c(ccc3[nH]n(C)nc32)c1=O | – | > 100 µM | – | > 100 | – | > 100 µM | – | – | – | > 100 µM | – | – | – | 95.5 µM | – | > 100 µM | – | > 100 µM | – | > 100 µM
